Assay results from patent US8236801B2, “2-aza-bicyclo[2.2.1]heptane derivatives” (Actelion Pharmaceuticals Ltd., priority 2008, dated 2012).
Where two headings read alike, the source gives them in different places.

Columns and labels:
human orexin-2 receptor = target: T1, human orexin-2 receptor (Homo sapiens, UniProt O43614); assay: FLIPR calcium assay, antagonism of orexin-A in CHO cells expressing the human orexin-2 receptor; format: cell-based; conditions: read-out: OX2 IC50
T1 construct: expressed in transfected cells; host or cells: Chinese hamster ovary (CHO) cells, G418 selection
T1 sequence (O43614 1-444): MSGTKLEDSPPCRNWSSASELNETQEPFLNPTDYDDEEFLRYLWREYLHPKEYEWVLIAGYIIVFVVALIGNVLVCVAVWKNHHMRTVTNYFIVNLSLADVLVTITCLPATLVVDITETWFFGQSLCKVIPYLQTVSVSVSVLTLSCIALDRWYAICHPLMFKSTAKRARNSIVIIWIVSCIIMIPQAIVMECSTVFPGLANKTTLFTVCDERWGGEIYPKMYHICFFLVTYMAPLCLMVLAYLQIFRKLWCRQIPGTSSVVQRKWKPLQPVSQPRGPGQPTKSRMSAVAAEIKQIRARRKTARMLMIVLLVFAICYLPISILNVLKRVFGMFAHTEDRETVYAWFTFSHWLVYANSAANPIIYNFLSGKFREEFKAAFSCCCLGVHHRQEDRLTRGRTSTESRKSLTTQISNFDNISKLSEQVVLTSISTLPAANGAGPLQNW
Protocol: (§1) Chinese hamster ovary (CHO) cells expressing the human orexin-1 receptor and the human orexin-2 receptor, respectively, are grown in culture medium (Ham F-12 with L-Glutamine) containing 300 μg/ml G418, 100 U/ml penicillin, 100 μg/ml streptomycin and 10% heat inactivated fetal calf serum (FCS). The cells are seeded at 20′000 cells/well into 384-well black clear bottom sterile plates (Greiner). The seeded plates are incubated overnight at 37° C. in 5% CO2. Human orexin-A as an agonist is prepared as 1 mM stock solution in MeOH:water (1:1), diluted in HBSS containing 0.1% bovine serum albumin (BSA), NaHCO3: 0.375 g/l and 20 mM HEPES for use in the assay at a final concentration of 3 nM. Antagonists are prepared as 10 mM stock solution in DMSO, then diluted in 384-well plates, first in DMSO, then in HBSS containing 0.1% bovine serum albumin (BSA), NaHCO3: 0.375 g/l and 20 mM HEPES. On the day of the assay, 50 μl of staining buffer (HBSS containing 1% FCS, 20 mM HEPES, NaHCO3: 0.375 g/l, 5 mM probenecid (Sigma) and 3 μM of the fluorescent calcium indicator fluo-4 AM (1 mM stock solution in DMSO, containing 10% pluronic) is added to each well. The 384-well cell-plates are incubated for 50 min at 37° C. in 5% CO2 followed by equilibration at rt for 30-120 min before measurement. Within the Fluorescent Imaging Plate Reader (FLIPR2 or FLIPR Tetra, Molecular Devices), antagonists are added to the plate in a volume of 10 μl/well, incubated for 10 min and finally 10 μl/well of agonist is added. Fluorescence is measured for each well at 1 second intervals, and the height of each fluorescence peak is compared to the height of the fluorescence peak induced by 3 nM orexin-A with vehicle in place of antagonist. For each antagonist, the IC50 value (the concentration of compound needed to inhibit 50% of the agonistic response) is determined. Optimized conditions may be achieved by adjustment of pipetting speed and cell splitting regime. The calculated IC50 values of the compounds may fluctuate depending on the daily cellular assay performance. Fluctuations of this kind are known to those skilled in the art.

human orexin-1 receptor = target: T2, human orexin-1 receptor (Homo sapiens, UniProt O43613); assay: FLIPR calcium assay, antagonism of orexin-A in CHO cells expressing the human orexin-1 receptor; format: cell-based; conditions: read-out: OX1 IC50
T2 construct: expressed in transfected cells; host or cells: Chinese hamster ovary (CHO) cells, G418 selection
T2 sequence (O43613 1-425): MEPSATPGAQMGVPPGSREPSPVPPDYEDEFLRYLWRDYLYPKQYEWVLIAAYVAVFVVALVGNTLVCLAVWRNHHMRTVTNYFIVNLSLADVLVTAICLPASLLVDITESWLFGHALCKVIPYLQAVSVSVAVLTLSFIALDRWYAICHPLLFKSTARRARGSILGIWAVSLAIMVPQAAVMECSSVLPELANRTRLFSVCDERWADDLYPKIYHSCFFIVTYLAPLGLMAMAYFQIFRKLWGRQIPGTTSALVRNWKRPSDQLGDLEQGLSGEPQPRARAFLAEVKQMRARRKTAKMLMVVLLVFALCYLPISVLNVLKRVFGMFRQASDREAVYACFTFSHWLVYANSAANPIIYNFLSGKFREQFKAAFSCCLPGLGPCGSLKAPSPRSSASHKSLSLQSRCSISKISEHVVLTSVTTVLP
Protocol: as §1

[1] = measured with FLIPR 2, 3 nM orexin-A, CHO cells
[2] = measured with FLIPR Tetra (marked *), 3 nM orexin-A, CHO cells
[3] = measured with FLIPR Tetra (marked *), geometric mean from n = 2 values

IC50 (human orexin-2 receptor; [2]) | IC50 (human orexin-1 receptor; [2]) | SMILES | also measured
 |  | Cc1nc(C(=O)N2[C@@H]3CC[C@@H](C3)[C@H]2CNC(=O)c2cccc3cccnc23)c(-c2cccc(Cl)c2)s1 [Example 1, Quinoline-8-carboxylic acid {(1R,3S,4S)-2-[5-(3-chloro-phenyl)-2-methyl-thiazole-4-carbonyl]-2-aza-bicyclo[2.2.1]hept-3-ylmethyl}-amide] | IC50 (human orexin-2 receptor; [1]): 622 nM; IC50 (human orexin-1 receptor; [1]): 59 nM
81 nM | 1270 nM | O=C(NC[C@@H]1[C@H]2CC[C@H](C2)N1C(=O)c1sccc1-c1ccc2c(c1)OCO2)c1cccc2ncsc12 [Example 94, Benzothiazole-7-carboxylic acid [(1R,3S,4S)-2-(3-benzo[1,3]dioxol-5-yl-thiophene-2-carbonyl)-2-aza-bicyclo[2.2.1]hept-3-ylmethyl]-amide] | 
 |  | CCn1nc(C)cc1C(=O)NC[C@@H]1[C@H]2CC[C@H](C2)N1C(=O)c1ccccc1-c1ccccc1 [Example 40, 2-Ethyl-5-methyl-2H-pyrazole-3-carboxylic acid [(1R,3S,4S)-2-(biphenyl-2-carbonyl)-2-aza-bicyclo[2.2.1]hept-3-ylmethyl]-amide] | IC50 (human orexin-2 receptor; [1]): 441 nM; IC50 (human orexin-1 receptor; [1]): > 10000 nM
37 nM | 305 nM | Cc1nc(C(=O)N2[C@@H]3CC[C@@H](C3)[C@H]2CNC(=O)c2cccc3ncsc23)c(-c2cccc(OC(F)(F)F)c2)o1 [Example 104, Benzothiazole-7-carboxylic acid {(1R,3S,4S)-2-[2-methyl-5-(3-trifluoromethoxy-phenyl)-oxazole-4-carbonyl]-2-aza-bicyclo[2.2.1]hept-3-ylmethyl}-amide] | 
364 nM | 488 nM | Cc1nc(C(=O)N2[C@@H]3CC[C@@H](C3)[C@H]2CNc2ncc(Br)cn2)c(-c2ccccc2)s1 [Example 46, {(1R,3S,4S)-3-[(5-Bromo-pyrimidin-2-ylamino)-methyl]-2-aza-bicyclo[2.2.1]hept-2-yl}-(2-methyl-5-phenyl-thiazol-4-yl)-methanone] | 
 |  | Cc1ncc(C(=O)N2[C@@H]3CC[C@@H](C3)[C@H]2CNC(=O)c2cccc3occc23)c(-c2ccccc2)n1 [Example 11, Benzofuran-4-carboxylic acid [(1R,3S,4S)-2-(2-methyl-4-phenyl-pyrimidine-5-carbonyl)-2-aza-bicyclo[2.2.1]hept-3-ylmethyl]-amide] | IC50 (human orexin-2 receptor; [1]): 2140 nM; IC50 (human orexin-1 receptor; [1]): 75 nM
15 nM | 80 nM | COc1nc(C(=O)N2[C@@H]3CC[C@@H](C3)[C@H]2CNC(=O)c2cccc3ncsc23)c(-c2cccc(Cl)c2)s1 [Example 80, Benzothiazole-7-carboxylic acid {(R,S,S)-2-[5-(3-chloro-phenyl)-2-methoxy-thiazole-4-carbonyl]-2-aza-bicyclo[2.2.1]hept-3-ylmethyl}-amide] | 
808 nM | 278 nM | Cc1nc2sccn2c1C(=O)NC[C@@H]1[C@H]2CC[C@H](C2)N1C(=O)c1ncsc1-c1ccc(F)cc1 [Example 35, 6-Methyl-imidazo[2,1-b]thiazole-5-carboxylic acid {(1R,3S,4S)-2-[5-(4-fluoro-phenyl)-thiazole-4-carbonyl]-2-aza-bicyclo[2.2.1]hept-3-ylmethyl}-amide] | 
 |  | COc1cccc(-c2sc(N(C)C)nc2C(=O)N2[C@@H]3CC[C@@H](C3)[C@H]2CNC(=O)c2cccc3ncsc23)c1 [Example 97, Benzothiazole-7-carboxylic acid {(1R,3S,45)-2-[2-dimethylamino-5-(3-methoxy-phenyl)-thiazole-4-carbonyl]-2-aza-bicyclo[2.2.1]hept-3-ylmethyl}-amide] | IC50 (human orexin-2 receptor; [3]): 14 nM; IC50 (human orexin-1 receptor; [3]): 12 nM
30 nM | 23 nM | O=C(NC[C@H]1[C@@H]2CC[C@@H](C2)N1C(=O)c1nc(N2CCCC2)sc1-c1ccccc1F)c1cccc2ncsc12 [Example 110, Benzothiazole-7-carboxylic acid {(1S,3R,4R)-2-[5-(2-fluoro-phenyl)-2-pyrrolidin-1-yl-thiazole-4-carbonyl]-2-aza-bicyclo[2.2.1]hept-3-ylmethyl}-amide] | 
32 nM | 117 nM | CCN(C)c1nc(C(=O)N2[C@H]3CC[C@H](C3)[C@@H]2CNC(=O)c2cccc3ncsc23)c(-c2ccc(F)cc2)s1 [Example 118, Benzothiazole-7-carboxylic acid {(1S,3R,4R)-2-[2-(ethyl-methyl-amino)-5-(4-fluoro-phenyl)-thiazole-4-carbonyl]-2-aza-bicyclo[2.2.1]hept-3-ylmethyl}-amide] | 
 |  | Cc1nc2c(C(=O)NC[C@@H]3[C@H]4CC[C@H](C4)N3C(=O)c3nc(N(C)C)sc3-c3cccc(F)c3)cccc2o1 [Example 79, 2-Methyl-benzooxazole-4-carboxylic acid {(1R,3S,4S)-2-[2-dimethylamino-5-(3-fluoro-phenyl)-thiazole-4-carbonyl]-2-aza-bicyclo[2.2.1]hept-3-ylmethyl}-amide] | IC50 (human orexin-2 receptor; [3]): 71 nM; IC50 (human orexin-1 receptor; [3]): 64 nM
 |  | Nc1nc(C(=O)N2[C@@H]3CC[C@@H](C3)[C@H]2CNC(=O)c2cccc3c2OCCO3)c(-c2cccc(F)c2)s1 [Example 5, 2,3-Dihydro-benzo[1,4]dioxine-5-carboxylic acid {(1R,3S,4S)-2-[2-amino-5-(3-fluoro-phenyl)-thiazole-4-carbonyl]-2-aza-bicyclo[2.2.1]hept-3-ylmethyl}-amide] | IC50 (human orexin-2 receptor; [1]): 29 nM; IC50 (human orexin-1 receptor; [1]): 149 nM
19 nM | 707 nM | O=C(NC[C@@H]1[C@H]2CC[C@H](C2)N1C(=O)c1nccnc1-c1ccc2cc[nH]c2c1)c1cccc2ncsc12 [Example 109, Benzothiazole-7-carboxylic acid {(1R,3S,4S)-2-[3-(1H-indol-6-yl)-pyrazine-2-carbonyl]-2-aza-bicyclo[2.2.1]hept-3-ylmethyl}-amide] | 
61 nM | 307 nM | CN(C)c1nc(C(=O)N2[C@@H]3CC[C@@H](C3)[C@H]2CNC(=O)c2nn(C)c3ccccc23)c(-c2ccccc2)s1 [Example 63, 1-Methyl-1H-indazole-3-carboxylic acid [(1R,3S,4S)-2-(2-dimethylamino-5-phenyl-thiazole-4-carbonyl)-2-aza-bicyclo[2.2.1]hept-3-ylmethyl]-amide] | 
421 nM | 65 nM | CN(C)c1nc(C(=O)N2[C@@H]3CC[C@@H](C3)[C@H]2CNC(=O)c2nsc3ccccc23)c(-c2cccc(F)c2)s1 [Example 105, Benzo[d]isothiazole-3-carboxylic acid {(1R,3S,4S)-2-[2-dimethylamino-5-(3-fluoro-phenyl)-thiazole-4-carbonyl]-2-aza-bicyclo[2.2.1]hept-3-ylmethyl}-amide] | 
55 nM | 138 nM | Cc1nc2sccn2c1C(=O)NC[C@@H]1[C@H]2CC[C@H](C2)N1C(=O)c1nc(C2CC2)sc1-c1ccccc1 [Example 31, 6-Methyl-imidazo[2,1-b]thiazole-5-carboxylic acid [(1R,3S,4S)-2-(2-cyclopropyl-5-phenyl-thiazole-4-carbonyl)-2-aza-bicyclo[2.2.1]hept-3-ylmethyl]-amide] | 
